Source: ChEMBL document CHEMBL5465560, “Selectivity Literature for EUbOPEN Chemogenomic Library” (2024)
Blank lines part the entries; values can stand above or below the molecule they belong to.

What was measured:
[1] = molecular target: Cyclin-dependent kinase 2 (Homo sapiens, UniProt P24941); test: Selectivity interaction (KinomeScan (DiscoverX)) EUB0000655a CDK2; conditions: at 10 µM
[2] = molecular target: T1, Ephrin type-A receptor 1 (Homo sapiens) (UniProt P21709); test: Selectivity interaction (SelectScreen profiling (Invitrogen)) EUB0000607a EPHA1; conditions: at 2 µM
T1 sequence (whole entry): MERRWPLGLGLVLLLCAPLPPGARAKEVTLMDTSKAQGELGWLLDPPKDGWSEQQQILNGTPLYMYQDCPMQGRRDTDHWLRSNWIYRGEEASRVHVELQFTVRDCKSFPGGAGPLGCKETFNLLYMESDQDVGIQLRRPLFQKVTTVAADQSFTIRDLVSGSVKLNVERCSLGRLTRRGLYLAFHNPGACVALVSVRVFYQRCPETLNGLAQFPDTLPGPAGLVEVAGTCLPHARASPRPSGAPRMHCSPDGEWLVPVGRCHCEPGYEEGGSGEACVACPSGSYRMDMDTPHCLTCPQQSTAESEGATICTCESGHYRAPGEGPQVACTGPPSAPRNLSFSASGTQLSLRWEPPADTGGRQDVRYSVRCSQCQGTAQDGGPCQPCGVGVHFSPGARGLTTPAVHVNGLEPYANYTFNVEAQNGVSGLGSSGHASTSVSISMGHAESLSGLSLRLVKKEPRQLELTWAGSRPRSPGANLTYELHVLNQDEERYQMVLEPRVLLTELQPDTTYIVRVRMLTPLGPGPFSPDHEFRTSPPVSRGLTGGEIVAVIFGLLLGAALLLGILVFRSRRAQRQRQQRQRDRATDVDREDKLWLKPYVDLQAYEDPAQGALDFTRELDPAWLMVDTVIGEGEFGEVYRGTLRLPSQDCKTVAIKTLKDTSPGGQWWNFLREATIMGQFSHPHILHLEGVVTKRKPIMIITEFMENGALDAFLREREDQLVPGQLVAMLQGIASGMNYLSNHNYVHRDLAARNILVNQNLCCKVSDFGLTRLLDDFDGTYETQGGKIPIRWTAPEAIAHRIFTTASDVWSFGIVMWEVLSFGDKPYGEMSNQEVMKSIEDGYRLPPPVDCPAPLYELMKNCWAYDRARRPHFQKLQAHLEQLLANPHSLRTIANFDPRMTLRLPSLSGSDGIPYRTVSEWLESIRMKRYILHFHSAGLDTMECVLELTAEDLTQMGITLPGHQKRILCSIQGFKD

[3] = test system: Phosphatidylinositol 4,5-bisphosphate 3-kinase catalytic subunit alpha isoform (Homo sapiens), P42336 [E545A]; conditions: at 10 µM
[4] = molecular target: Serine/threonine-protein kinase OSR1 (Homo sapiens) (UniProt O95747); test: Selectivity interaction (ActivX KiNativ screen (ex vivo kinase selectivity in human PBMCs)) EUB0001619a OXSR1; type: cell-based; conditions: PBMC, at 1 µM
[5] = molecular target: T2, Mitogen-activated protein kinase kinase kinase 19 (Homo sapiens) (UniProt Q56UN5); conditions: at 10 µM
T2 sequence (whole entry): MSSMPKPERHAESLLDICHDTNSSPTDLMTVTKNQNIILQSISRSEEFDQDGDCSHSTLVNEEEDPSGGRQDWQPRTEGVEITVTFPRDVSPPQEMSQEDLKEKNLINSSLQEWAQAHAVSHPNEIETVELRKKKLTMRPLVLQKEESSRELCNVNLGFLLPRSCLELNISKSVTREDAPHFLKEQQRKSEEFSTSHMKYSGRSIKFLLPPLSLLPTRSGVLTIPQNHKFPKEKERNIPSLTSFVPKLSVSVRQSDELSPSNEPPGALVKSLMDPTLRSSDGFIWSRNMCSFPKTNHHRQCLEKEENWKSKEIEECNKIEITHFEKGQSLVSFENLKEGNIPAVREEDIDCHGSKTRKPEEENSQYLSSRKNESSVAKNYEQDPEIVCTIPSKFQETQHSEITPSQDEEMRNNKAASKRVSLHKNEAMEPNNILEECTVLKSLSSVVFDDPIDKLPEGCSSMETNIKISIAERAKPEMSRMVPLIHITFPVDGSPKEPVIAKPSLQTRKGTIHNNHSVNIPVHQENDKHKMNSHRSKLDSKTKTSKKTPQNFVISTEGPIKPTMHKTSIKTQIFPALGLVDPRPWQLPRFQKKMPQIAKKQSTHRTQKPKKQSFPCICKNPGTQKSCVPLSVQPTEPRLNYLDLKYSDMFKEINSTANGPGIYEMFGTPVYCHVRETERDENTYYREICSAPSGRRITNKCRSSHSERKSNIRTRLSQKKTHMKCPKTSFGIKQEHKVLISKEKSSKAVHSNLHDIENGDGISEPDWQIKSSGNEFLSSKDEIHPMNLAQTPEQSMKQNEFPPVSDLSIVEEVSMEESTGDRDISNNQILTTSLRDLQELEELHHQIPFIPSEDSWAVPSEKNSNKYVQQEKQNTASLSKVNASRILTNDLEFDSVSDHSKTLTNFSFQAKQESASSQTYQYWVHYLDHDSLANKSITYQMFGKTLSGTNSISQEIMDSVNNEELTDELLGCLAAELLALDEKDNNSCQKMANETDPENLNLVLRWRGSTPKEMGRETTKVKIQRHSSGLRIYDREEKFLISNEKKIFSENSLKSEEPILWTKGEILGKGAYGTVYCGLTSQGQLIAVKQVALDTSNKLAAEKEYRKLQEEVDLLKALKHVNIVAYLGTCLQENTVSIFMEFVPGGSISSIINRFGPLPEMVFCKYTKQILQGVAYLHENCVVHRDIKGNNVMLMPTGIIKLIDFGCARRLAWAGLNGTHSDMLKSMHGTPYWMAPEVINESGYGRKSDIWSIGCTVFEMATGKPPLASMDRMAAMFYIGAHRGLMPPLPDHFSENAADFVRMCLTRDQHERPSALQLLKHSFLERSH

[6] = molecular target: T3, Aurora kinase A (Homo sapiens) (UniProt O14965); test: Selectivity interaction (ActivX KiNativ screen (kinase selectivity in THP-1 cell lysates)) EUB0000639a STK6; type: subcellular; conditions: lysate, at 0.04 µM
T3 sequence (whole entry): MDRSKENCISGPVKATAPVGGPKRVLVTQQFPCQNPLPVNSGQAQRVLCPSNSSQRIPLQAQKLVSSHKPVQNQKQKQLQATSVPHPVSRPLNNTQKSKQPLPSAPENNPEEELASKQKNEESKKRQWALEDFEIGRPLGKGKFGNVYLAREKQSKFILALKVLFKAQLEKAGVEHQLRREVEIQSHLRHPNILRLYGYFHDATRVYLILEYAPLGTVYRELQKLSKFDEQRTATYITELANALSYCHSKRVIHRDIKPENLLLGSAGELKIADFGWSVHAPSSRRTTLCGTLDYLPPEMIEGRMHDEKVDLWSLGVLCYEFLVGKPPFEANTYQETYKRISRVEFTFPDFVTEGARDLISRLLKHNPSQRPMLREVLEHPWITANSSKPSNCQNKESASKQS

[7] = molecular target: CDK7/Cyclin H/MNAT1 (Homo sapiens) (UniProt P51946+P50613+P51948); test: Selectivity interaction (Adapta Assay) EUB0001632a CDK7; type: protein-complex assay; conditions: at 10 µM

Sequence of Phosphatidylinositol 4,5-bisphosphate 3-kinase catalytic subunit alpha isoform (Homo sapiens), P42336 [E545A] (P42336 whole entry E545A, canonical isoform): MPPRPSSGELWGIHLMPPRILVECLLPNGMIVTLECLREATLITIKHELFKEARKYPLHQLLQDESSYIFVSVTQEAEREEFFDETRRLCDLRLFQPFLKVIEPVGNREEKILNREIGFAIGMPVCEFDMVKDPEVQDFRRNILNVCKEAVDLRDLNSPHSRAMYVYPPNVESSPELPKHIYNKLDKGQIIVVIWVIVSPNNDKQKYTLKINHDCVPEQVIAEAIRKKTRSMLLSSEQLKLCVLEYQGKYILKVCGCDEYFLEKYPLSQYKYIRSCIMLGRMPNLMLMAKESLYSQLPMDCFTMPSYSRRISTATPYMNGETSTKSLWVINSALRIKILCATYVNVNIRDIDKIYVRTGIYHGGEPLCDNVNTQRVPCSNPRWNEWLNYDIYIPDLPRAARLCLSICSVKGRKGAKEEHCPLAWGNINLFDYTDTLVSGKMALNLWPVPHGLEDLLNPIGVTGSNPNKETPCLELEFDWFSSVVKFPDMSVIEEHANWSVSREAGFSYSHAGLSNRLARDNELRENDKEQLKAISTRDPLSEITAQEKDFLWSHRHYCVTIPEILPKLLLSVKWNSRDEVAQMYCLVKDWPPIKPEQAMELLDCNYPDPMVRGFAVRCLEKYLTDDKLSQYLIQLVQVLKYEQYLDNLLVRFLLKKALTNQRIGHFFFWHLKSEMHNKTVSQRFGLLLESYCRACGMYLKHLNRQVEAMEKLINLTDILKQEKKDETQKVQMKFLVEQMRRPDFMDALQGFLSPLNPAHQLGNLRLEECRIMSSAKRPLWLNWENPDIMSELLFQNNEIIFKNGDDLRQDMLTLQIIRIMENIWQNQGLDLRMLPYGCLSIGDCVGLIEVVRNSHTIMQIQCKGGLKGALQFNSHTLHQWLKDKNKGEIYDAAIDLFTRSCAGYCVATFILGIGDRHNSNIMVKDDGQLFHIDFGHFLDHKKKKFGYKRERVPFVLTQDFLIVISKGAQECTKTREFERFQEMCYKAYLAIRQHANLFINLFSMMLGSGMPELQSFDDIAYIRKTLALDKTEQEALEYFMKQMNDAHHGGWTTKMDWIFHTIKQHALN
Sequence of Serine/threonine-protein kinase OSR1 (Homo sapiens) (O95747 2-527 limits assumed): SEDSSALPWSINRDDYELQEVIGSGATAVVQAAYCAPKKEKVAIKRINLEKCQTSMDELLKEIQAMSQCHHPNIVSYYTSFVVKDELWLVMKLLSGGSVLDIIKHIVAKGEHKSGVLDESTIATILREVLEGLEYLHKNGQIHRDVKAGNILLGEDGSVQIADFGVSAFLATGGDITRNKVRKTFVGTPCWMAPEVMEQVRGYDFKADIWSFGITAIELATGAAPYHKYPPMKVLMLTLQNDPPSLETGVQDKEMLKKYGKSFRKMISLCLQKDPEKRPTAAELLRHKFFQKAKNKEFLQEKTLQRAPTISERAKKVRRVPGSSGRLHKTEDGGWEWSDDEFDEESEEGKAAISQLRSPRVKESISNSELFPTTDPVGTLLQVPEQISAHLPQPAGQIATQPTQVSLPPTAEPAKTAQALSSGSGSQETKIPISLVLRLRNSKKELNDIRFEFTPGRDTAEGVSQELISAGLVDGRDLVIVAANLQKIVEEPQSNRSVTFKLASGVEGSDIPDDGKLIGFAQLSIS

SMILES: CN(C)CCOc1ccc(-c2nc(-c3ccncc3)c(-c3ccc4c(c3)CC/C4=N\O)[nH]2)cc1
% of control [1]: 100%

SMILES: CNC(=O)Nc1ccc(-c2nc(N3CC4CCC(C3)O4)c3cnn(C4CCC5(CC4)OCCO5)c3n2)cc1
% of inhibition [2]: 3%
% of control [3]: 8.8%

SMILES: N#Cc1cccc(-c2c[nH]c3ncnc(N4CCOCC4)c23)c1
% of inhibition [4]: -55%

SMILES: Cc1cc([C@@H](C)Nc2ccccc2C(=O)O)c2nc(N3CCOCC3)cc(=O)n2c1 [AZD-6482]
% of control [5]: 100%

% of inhibition [6]: -1.3%
SMILES: CC[C@@H]1[C@H](F)C(=O)N[C@@H]1COc1nccc2cc(C(N)=O)c(OC)cc12 [ZIMLOVISERTIB]

% of inhibition [7]: -13.5%
SMILES: Cn1cc(-n2cnc3c(NCc4nc5cc(Cl)c(Cl)cc5[nH]4)nc(N4CCOCC4)nc32)cn1
